Experimental findings from patent US20130116251A1, “Novel HSP90 Inhibitor” (Nippon Kayaku Kabushiki Kaisha, priority 2005, published 2013) are described below.

In one assay the target is rHSP90. As to the kind of experiment: HSP90 binding assay (BIACORE SPR; inhibition of binding between rHSP90 and fixed herbimycin A). The conditions noted are these: concentration inhibiting binding between rHSP90 (50 μg/mL) and fixed herbimycin A by 50%, BIACORE-X SPR; read-out: HSP90 inhibitory activity IC50. An excerpt: The HSP90 binding assay system is a system for detecting the change of mass as SPR signal caused by the binding between herbimycin A fixed on a sensor chip and rHSP90 by BIACORE-X, in which 17-(6-amino hexylamino)herbimycin A is fixed through a carboxyl group on the surface of the sensor chip (CM5, BIACORE) on which carboxymethyldextran has been introduced. The method was according to the protocol of BIACORE. In addition, 17-(6-aminohexylamino)herbimycin A was synthesizes as described below.
rHSP90 (Stressgen Biotechnologies Corp., Victoria, BC Canada) at 50 μg/mL was exposed for 10 seconds to the surface of the sensor chip on which herbimycin A was fixed and the SPR signal (numerical value of interaction) was detected.
After mixing rHSP90 protein (5×10^−7M (50 μg/mL)) with the triazole derivative of the present invention, the mixture was exposed for 10 seconds to the surface of the sensor chip on which herbimycin A was fixed, and the SPR signal was measured by BIACORE-X.
Next, using following formula (1), the inhibitory activity (binding inhibition rate (%)) of the compound of the present invention to the binding between rHSP90 and fixed herbimycin A was obtained.
binding inhibition rate(%)=((b−s)/b)×100 Formula (1)
wherein b is the SPR signal when the compound of the present invention is not added to the sample: s is the SPR signal when the compound of the present invention is added to the sample.
A general note: SPR reads the build-up and loss of mass on a sensor chip optically.

Assay [1] deals with Human breast cancer cells (MCF7). The assay is described as follows: Antiproliferative activity on MCF7 cells (methylene blue method). It is filed as cell-based. The conditions noted are these: MCF7 cells, 72 hours treatment, 660 nm absorbance after methylene blue staining, read-out: Antiproliferative activity IC50. The protocol: Human breast cancer cells (MCF7) were treated with samples of various concentrations of known HSP90 inhibitors (that is, geldanamycin, herbimycin, radicicol and PU3) and the compounds of the present invention for 72 hours to confirm the effect of the triazole derivatives of the present invention on the cell growth. The cell ratio after the drug treatment was evaluated by measuring 660 nm absorbance by a microplate reader (BioRad) after staining the cells with the methylene blue method.
Cells were distributed to wells of 96 well plates at 2000 cells per well and treated with drugs 24 hours later. Further, the medium was removed 72 hours later and the cells were fixed by adding 50 μl of methanol and standing at room temperature for 2 minutes. After removing methanol, 100 μl of a staining solution was added and stained for 30 minutes. After washing 3 times with 200 μl of distilled water, 3% HCl solution was added, and the 660 nm absorbance of methylene blue was measured by a microplate reader (BioRad).
Next, the antiproliferative activity rate (%) was obtained by the formula (2) below.
Antiproliferative activity rate(%)=((B−A)/B)×100 Formula (2)
wherein B is 660 nm absorbance of the sample when the compound of the present invention is not added, and A is 660 nm absorbance of the sample when the compound of the present invention is added.
From the concentration of the triazole derivative of the present invention and the antiproliferative activity rate, the concentration was obtained using the above formula, at which the cell growth was suppressed by 50% by comparing with the control, and termed an IC50 value.
The antiproliferative activity rate (%) was obtained for SH-b04, SH-b05 and SH-b06 described above by a similar manner to that of the triazole derivatives of the present invention.

The subject of assay [2] is HSP90 client protein Her2 in MCF7 cells. The assay is described as follows: Measurement test for amount of HSP90 client protein Her2 (Western blotting). The conditions noted are these: MCF7 cells treated 16 hours at 3-5 concentrations. The format is cell-based. The protocol: (§1) MCF7 cells (American Type Culture Collection, Rockville, Md.) were treated with the compounds of the present invention at various concentrations for 16 hours to confirm that the HSP90 inhibitors of the present invention induce a depression of intracellular concentration of the client protein or target polypeptide that bind to HSP90. The amount of the HSP90 client protein Her2 and ERα was evaluated by the Western blotting method.
(§2) One million cells were seeded in a 6 cm dish, and 24 hours later the compounds of the present invention (Example 1-2, Example 2-1, Example 2-13, Example 2-2, Example 3-4, Example 2-5, Example 3-16, Example 3-6, Example 2-7, Example 3-27, Example 2-10 and Example 3-18) were added. Cells treated with the compounds were washed, mixed with 150 μl of lysis buffer (RIPA, 150 mM NaCl, 1% NP40, 0.1% deoxycholate (sodium salt), 0.1% SDS, 1 mM EDTA, 10 mM Tris-HCl (pH 8.0)) and incubated at 4° C. for 30 minutes. The cell lysates were centrifuged (15,000 rpm, 20 minutes) and protein (20 μg) of the supernatant was subjected to SDS polyacrylamide gel electrophoresis (SDS-PAGE). After finishing the electrophoresis, proteins in the gel were transferred to a PVDF membrane. The membrane after the transfer was treated with a primary antibody against the HSP90 client protein (anti Her2 or anti ERa antibody, both from Santa Cruz Biotechnology, Santa Cruz, Calif.), then treated with secondary antibodies (anti-rabbit Ig, horse radish peroxidase conjugated F(ab′)2 fragment (derived from donkey): Amersham Biosciences, UK Limited, Buckinghamhshire, UK.) and then the amount of the client protein was detected as the intensity of chemiluminescence signal with a chemiluminescence reagent (ECL: Amersham Biosciences UK Limited, Buckinghamshire, UK).
For orientation: Immunoblotting shows a protein as a band on a membrane.

In assay [3] the test system is HSP90 client protein ERα in MCF7 cells. As to the kind of experiment: Measurement test for amount of HSP90 client protein ERα (Western blotting). Conditions: MCF7 cells treated 16 hours at 3-5 concentrations. The format is cell-based. The protocol: as §1, §2
A further assay relates to Human lung cancer H460. As to the kind of experiment: Antitumor effect on nude mice transplanted with human lung cancer H460. The format is in vivo. The conditions noted are these: Table 10, tail vein, 5 days continuous, day 8, starting day = 1.0, control group 6.5 ± 2.0. The protocol: Antitumor Effect on Nude Mice Transplanted with Human Lung Cancer
Human lung cancer H460 tumor fragment, which had been passaged subcutaneously in nude mice, was made into about 3 mm fragment and transplanted subcutaneously to the back of nude mice using a trocar. When the tumor volume grew to about 50 mm^3 or above, the compound of the present invention was administered to the tail vein once a day for 5 or 7 days every day. The compound of the present invention was dissolved in DMSO, mixed with TWEEN 80, and then diluted with a 5% glucose injection solution and used. The vehicle of the compound was administered to the control group of OH-a01. The control groups in other experiments were not treated. The tumor volume was measured on the first administration day and on the evaluation day (7 or 8 days after the start of the administration), and the relative tumor volume of the evaluation day was obtained from the tumor volume on the first administration day. Further, the tumor volume was calculated by measuring the major axis (Lmm) and minor axis (Wmm) of the tumor and by the formula (L×W^2)/2.
Relative tumor volume represents the average relative tumor volume on day 7 after the start of the administration, assuming the tumor volume of the starting day is 1.0.
Relative tumor volume represents the average relative tumor volume on day 8 after the start of the administration, assuming the tumor volume of the starting day is 1.0.

Counter-ions that a name gives are not always drawn. Like-named read-outs stand apart in the source and are kept apart here.

For orientation: IC50 means the concentration at which inhibition is half-maximal. In the case of `COc1ccc(-n2c(-c3cc(C(C)C)c(O)cc3O)nnc2S(C)(=O)=O)cc1` [SFN-a08, 4-isopropyl-6-[5-methanesulfonyl-4-(4-methoxy-phenyl)-4H-[1,2,4]triazol-3-yl]-benzene-1,3-diol], the IC50 at rHSP90 came out at 0.094 µM; in assay [1] (Homo sapiens, MCF7, 72 h) it was 0.27 µM. Moreover, the “amount of HSP90 client protein Her2” value in assay [2] was “depression”. For the same molecule, the “amount of HSP90 client protein ERα” value in assay [3] is recorded as “depression”.

In the case of `CC(C)c1cc(-c2n[nH]c(=O)n2-c2ccc(CN3CCN(C)CC3)cc2)c(O)cc1O` [OH-a13, 5-(2,4-dihydroxy-5-isopropylphenyl)-4-[4-(4-methylpiperazin-1-ylmethyl)phenyl]-2,4-dihydro-[1,2,4]triazol-3-one], the IC50 at rHSP90 amounted to 0.25 µM; in assay [1] (Homo sapiens, MCF7, 72 h), 0.071 µM. Also, the “amount of HSP90 client protein Her2” value in assay [2] is “depression”. For the same molecule, in assay [3], the “amount of HSP90 client protein ERα” value is “depression”. Further, the “Relative tumor volume (Average ± SD)” value is 1.4 ± 0.5 in the assay with Human lung cancer H460 (50 mg/kg/day) and 1.1 ± 0.3 in the assay with Human lung cancer H460 (100 mg/kg/day).

`CC(C)c1cc(-c2n[nH]c(=S)n2-c2ccc(CN3CCOCC3)cc2)c(O)cc1O` [SH-a02, 4-isopropyl-6-{5-mercapto-4-[4-(morpholin-4-ylmethyl)-phenyl]-4H-[1,2,4]triazol-3-yl}-benzene-1,3-diol]: the IC50 at rHSP90 stood at 0.24 µM; in assay [1] (Homo sapiens, MCF7, 72 h), 0.036 µM. Moreover, in assay [2], the “amount of HSP90 client protein Her2” value was “depression”. Besides, the “amount of HSP90 client protein ERα” value in assay [3] is on record as “depression”.

Turning to `COc1ccc(-n2c(-c3cc(C(C)C)c(O)cc3O)nnc2S(=O)(=O)CCCN(C)C)cc1` [SFN2-a08, 4-[5-(3-dimethylamino-propane-1-sulfonyl)-4-(4-methoxy-phenyl)-4H-[1,2,4]triazol-3-yl]-6-isopropyl-benzene-1,3-diol], the IC50 on rHSP90 worked out at 0.7 µM; in assay [1] (Homo sapiens, MCF7, 72 h) it was 0.069 µM. Also, the “amount of HSP90 client protein Her2” value in assay [2] is on record as “depression”. For the same molecule, the “amount of HSP90 client protein ERα” value in assay [3] is “depression”.

As to `COc1ccc(-n2c(NS(C)(=O)=O)nnc2-c2cc(C(C)C)c(O)cc2O)cc1` [Example N1-a08, N-[5-(2,4-dihydroxy-5-isopropyl-phenyl)-4-(4-methoxy-phenyl)-4H-[1,2,4]triazol-3-yl]-methanesulfonamide], the IC50 was 0.29 µM at rHSP90 and 0.18 µM in assay [1] (Homo sapiens, MCF7, 72 h). In addition, in assay [2], the “amount of HSP90 client protein Her2” value was “depression”. In addition, the “amount of HSP90 client protein ERα” value in assay [3] was “depression”.

Regarding `CC(C)c1cc(-c2n[nH]c(=O)n2-c2ccc(O)cc2)c(O)cc1O` [OH-a11, 5-(2,4-dihydroxy-5-isopropylphenyl)-4-(4-hydroxyphenyl)-4H-[1,2,4]triazol-3-one], the IC50 amounted to 0.22 µM at rHSP90 and 0.077 µM in assay [1] (Homo sapiens, MCF7, 72 h). Further, in assay [2], the “amount of HSP90 client protein Her2” value was “depression”. In assay [3], the “amount of HSP90 client protein ERα” value is recorded as “depression”.

With `COCCn1c(-c2cc(C(C)C)c(O)cc2O)n[nH]c1=S` [SH-a32, 5-(2,4-dihydroxy-5-isopropyl-phenyl)-4-(2-methoxy-ethyl)-2,4-dihydro-[1,2,4]triazol-3-thione], the IC50 at rHSP90 came to 0.24 µM; in assay [1] (Homo sapiens, MCF7, 72 h), 0.55 µM.

For `COc1ccc(OC)c(-n2c(S)nnc2-c2ccc(O)cc2O)c1` [SH-b06, reference compound], the IC50 on rHSP90 was determined as 0.69 µM; in assay [1] (Homo sapiens, MCF7, 72 h), 77 µM.

On to `CC(C)c1cc(-c2nnc(S(C)(=O)=O)n2CCc2ccc[n+]([O-])c2)c(O)cc1O` [SFN-a29, 5-(2,4-dihydroxy-5-isopropylphenyl)-4-[2-(1-oxopyridin-3-yl)ethyl]-3-methanesulfonyl-4H-[1,2,4]triazole], for which the IC50 on rHSP90 was 3.6 µM; in assay [1] (Homo sapiens, MCF7, 72 h), over 20 µM.

Turning to “4-bromo-6-{5-methylsulfanyl-4-[4-(morpholin-4-yl)-phenyl]-4H-[1,2,4]triazol-3-yl}-benzene-1,3-diol trifluoroacetate [SMe-d01-TF]”, the figures for the IC50 (on rHSP90; in assay [1]) were 0.6 µM and 5.5 µM, respectively.

`COCCOCCS(=O)(=O)c1nnc(-c2cc(C(C)C)c(O)cc2O)n1-c1ccc(OC)cc1` [SFN8-a08, 4-isopropyl-6-{5-[2-(2-methoxy-ethoxy)-ethanesulfonyl]-4-(4-methoxy-phenyl)-4H-[1,2,4]triazol-3-yl}-benzene-1,3-diol]: the IC50 is 0.6 µM at rHSP90 and 2.4 µM in assay [1] (Homo sapiens, MCF7, 72 h).

Take `CC(C)c1cc(-c2nnc(S(C)(=O)=O)n2-c2ccc(CN3CCOCC3)cc2)c(O)cc1O` [SFN-a02, 4-isopropyl-6-{5-methanesulfonyl-4-[4-(morpholin-4-ylmethyl)-phenyl]-4H-[1,2,4]triazol-3-yl}-benzene-1,3-diol]: the IC50 on rHSP90 was 0.12 µM; in assay [1] (Homo sapiens, MCF7, 72 h), 0.15 µM. The “amount of HSP90 client protein Her2” value in assay [2] is on record as “depression”. The “amount of HSP90 client protein ERα” value in assay [3] is “depression”.

For `CC(C)c1cc(-c2nnc(S(=O)(=O)CCCN(C)C)n2-c2ccc(O)cc2)c(O)cc1O` [SFN2-a11•TFA, 4-[5-(3-dimethylamino-propylsulfonyl)-4-(4-hydroxy-phenyl)-4H-[1,2,4]triazol-3-yl]-6-isopropyl-benzene-1,3-diol], the IC50 on rHSP90 was 0.43 µM; in assay [1] (Homo sapiens, MCF7, 72 h), 0.098 µM.
